Values of other authors, collected in EP4643845A1, “COSMETIC COMPOSITION” (Shiseido Company, Ltd., priority 2022, dated 2024).
*1 amine or outer side, *2 acyl side, *3 side chain or, on linkers, in order; H or OH if unused. Where a SMILES comes first, the peptide text is derived from it. Bridges are numbered along the chain shown (N, C = ends). X1 = CC(C)CCCCCCCCCC(CC(=O)[*:1])O[*:2]

Details: according to relevant reports

critical micelle concentration (CMC): 0.0003 % (mass fraction)
SMILES: CC(C)CCCCCCCCCC1CC(=O)NC(CCC(=O)O)C(=O)NC(CC(C)C)C(=O)NC(CC(C)C)C(=O)NC(C(C)C)C(=O)NC(CC(=O)O)C(=O)NC(CC(C)C)C(=O)NC(CC(C)C)C(=O)O1 (stereo not shown) [formula (1)] (ELLVDLL; linker N-C via X1; configuration not given here)
